How the values were obtained:
[1] = Ligand facilitated Fe(III) efflux from liposomes; type: biochemical; set-up: unit not given here; conditions: efflux rate k at 10 μM ligand concentration; ferrozine absorbance 562 nm, 120 min kinetic read
Experimental: Assay 1: Ligand Facilitated Fe(III) Efflux from Liposomes
Preparation of POPC (1 palmitoyl-2-oleoyl-sn-glycero-3 phosphocholine): Cholesterol Liposomes
A 1M buffer solution of MES and Tris was prepared by dissolving 121.14 grams of Tris base and 213.25 grams of MES hydrate in 500 mL of MilliQ water and adjusted to pH7.0 using an […] HCl solution before bringing the total volume of the solution to 1 L. A 500 mM solution of FeCl3 was prepared by dissolving 0.811 grams of anhydrous FeCl3 in 10 mL of a 0.1M H2SO4 aqueous solution. Inside buffer is prepared in a 50 mL falcon tube, which was added with 25 mL of MilliQ water, 1.61 g of sodium citrate, 1.5 mL of the above FeCl3 solution, and 2.5 mL of the 1M MES/Tris HCl buffer (pH=7.0), and finally additional MilliQ H2O to bring to a 50 mL final volume.
Lipid solution is prepared by dissolving 206.9 mg of POPC (1-palmitoyl-2-oleoyl-sn-glycero-3-phosphocholine) and 8.6 mg of cholesterol in 10 mL of ethanol.
The lipids solution and the inside buffer solution are independently loaded into 10 mL luer lock syringes for loading into a virgin cartridge on a Precision Nanosystems NanoAssembler to prepare unilamaller liposomes with the following parameters: 7.5 mL total volume, 1.5:1 mixing ratio of inside buffer:lipids solution, 8 mL/min flow rate, ambient temperature, 0.35 mL start waste, and 0.05 mL of end waste. 7.5 mL of liposomes is harvested for purification on a 6-inch long, 1-inch diameter Sephadex G-50 column wetted in 600 mM sodium ascorbate and 50 mM MES/Tris HCl pH 7.0 buffer. This buffer also serves as the column running buffer. The crude liposome solution is carefully loaded with minimal volume of running buffer above the top of the Sphadex, allowed to enter the matrix, and the column is run with the continued addition of running buffer. The eluting liposomes, observed as a milky and turbid solution, are collected until free iron begins to elute (observed as a deep purple color) and the fractions are pooled for phosphorus quantitation.
Determination of Phosphorus Content:
Phosphorus content of eluted liposomes was determined by the process outlined below. 10 μL of liposome elution and a running buffer blank are added to a 5 mL glass vial containing 450 μL of a 8.9 M aqueous H2SO4 solution, the mixture is heated to 225° C. for 25 minutes in an aluminum heat block to hydrolyze POPC and cooled for 5 minutes. 200 μL of a 30% hydrogen peroxide aqueous solution is added to each vial and heated to 225° C. for 25 minutes. After cooling, the phosphorus content was determined using an Abcam Phosphate Assay kit, with buffer subtracted phosphorus levels determined against a standard curve of phosphate included in the kit. Liposomes were diluted to 1 mM phosphate in Running Buffer for use in assays after accounting for dilutions made during phospholipid digestion.
Determination of the Iron Transporting Rate Constant of the Ligands:
Determination of the rate at which a small molecule ligand liberates (transport) Ferric iron from liposomes is performed in clear bottom black 384-well plates on a Spectramax i3x set to read the absorbance at 562 nm in the kinetic mode every 60 seconds for 120 minutes. 1 μL of serially diluted DMSO stock solution of a small molecule ligand is added to wells in triplicate to give the final concentrations of 40, 20, 10, 5, 2.5, and 1.25 uM of the ligand at 80 μL final volume, followed by addition of 1 μL of 100 mM Ferrozine in water to give a final concentration of 1 mM ferrozine. 78 μL of liposomes diluted to 1 mM phosphorus in running buffer is added to wells as quickly as possible (using a digital repeater multichannel pipette) with the kinetic read initiated as rapidly as possible after addition of liposomes to all wells. Typically, eight compounds at six concentrations are tested in triplicate simultaneously. […]

[2] = tested on: DMT1-deficient Caco-2 cells; experiment: shDMT1-Caco2 55Fe transport assay; type: cell-based; conditions: Caco-2
Description: Assay 2: shDMT1-Caco2 ^55Fe Transport Assay to Assess Ligand Ability in Transporting Fe (III)
Cells: DMT1-deficient Caco-2 cells (alias: “shDMT1,” or “4A” cells) were from Grillo et al. Science, 2017, and were cryopreserved in liquid nitrogen prior to use.
Reagents and supplies: ^55FeCl3 was obtained from PerkinElmer (Boston, MA). Iron(III) chloride (FeCl3) hexahydrate was obtained from Sigma. Dulbecco's Modified Eagle Medium (DMEM), fetal bovine serum (FBS), L-glutamine, MEM nonessential amino acids, penicillin-streptomycin, G418, formic acid, methanol, high-purity water, ammonium formate, dimethyl sulfoxide (DMSO) were purchased from Fisher Scientific. Propranolol, atenolol and carbutamide were obtained from Sigma-Aldrich Chemical Company (St Louis, MO). Scintillation cocktail was obtained from Research Product International Co. (Mount Prospect, IL). Stericup filter system (PES membrane, 0.22 um pore size) was purchased from Fisher Scientific. Corning item #3378 24-well transwell insert plates.
Test articles: known compounds hinokitiol and deferiprone were purchased from Sigma. They are tested side by side with the small molecule ligands disclosed in this application. DMSO stocks (10 mM, which is 1,000× of the 10 μM dose level) of hinokitiol or test articles were prepared. A stock solution of 25 mM deferiprone in DMSO was prepared. The DMSO stock solutions were stored at −20° C. or below when not in use.
The growth medium was prepared according to the following table
Apical media (serum free DMEM, 10 mM MES, pH 6.5) was prepared. Apical master mix media was prepared fresh with the addition of 200 nM ^55Fe before each experiment. For the negative control propranolol and atenolol wells, 200 nM of non-radioactive iron was used.
The basolateral media was serum-free DMEM, 10 mM HEPES, 2% bovine serum albumin (BSA), pH 7.4.
For each experiment, cells were seeded into the 24-well transwell plates (0.5 mL of 50,000 cells/mL) with growth media. The basolateral companion plate was loaded with 1 mL of growth media. After 12-24 hr, both the apical and basolateral chamber were replaced with growth media. The apical media was changed 3× per week for 21-28 days, including a media change exactly 48 hr before the assay date.
On the assay day, the TEER values were measured and the average TEER value was obtained. Individual wells with TEER value >35% lower than the average of all wells were excluded. For the qualified wells, the apical layer (twice) and basolaterial (once) chambers were washed with PBS. The basolateral companion plate was then filled with 1 mL of basolateral media. Via addition down the side-wall of the apical well, 300 μL per well of the apical assay master mix, with the indicated dose level of test article, was added. Each dose was tested in triplicate. The plates were incubated (5% CO2 and 90% humidity at 37° C.) for the indicated timepoints. At each indicated timepoint, the basolateral supernatant was gently mixed via pipetting, and 200 μL of the basolateral supernatant was transferred to scintillation vials. To each scintillation counting vial, 5 mL of scintillation cocktail fluid was added. For each scintillation vial, the radioactivity (CPM) was determined with liquid scintillation counter LS6500. The counting time per vial was 5 min.
All raw CPM values are divided by the average value of blank DMSO solution to give a fold of change above the DMSO value. The mean and standard deviation of each compound at each concentration level and at each time point measured was calculated to give the fold change (fc) value. For rank order compounds, the fc value of a ligand at 4 h time point is further divided by the fold change (fc) value of hinokitiol (a positive control compound) at an equimolar concentration to arrive at the FC (normalized fold of change) value. Data reported in Tables 1 and 2 is 4 hr time point FC=fc-ligand @ 3 uM/fc-hino @ 3 μM, and FC hino=1.

Row | SMILES | Caco2 shDMT1 transport FC @ 3 μM, 4 h [2] | Liposome Fe transport kefflux at 10 μM [1]
1 | O=c1ccccc(OC2COC2)c1O | 0.01-0.5 | 0.1-5
2 | O=c1c(O)ccc(OC2CCC2)cc1F | 0.01-0.5 | 10-25
3 | O=c1ccccc(OC2CC(F)(F)C2)c1O | 1-5 | 7.5-10
4 | O=c1cccc(OC2CC2)cc1O | 1-5 | 5-7.5
5 | O=c1cccc(O[C@@H]2CCOC2)cc1O (stereo in doubt) | 0.01-0.5 | 0.1-5
6 | O=c1cccc(C2CC3CCC(C2)O3)cc1O (stereo not shown) [drawing 181] | 0.01-0.5 | 7.5-10
7 | O=c1ccccc(C2CCOCC2)c1O [drawing 183] | 1-5 | 0.1-5
8 | O=c1ccc(OC2COC2)ccc1O [drawing 187] | 0.01-0.5 | 5-7.5
9 | O=c1c(O)cc(C2CC2)ccc1F [drawing 209] | 0.01-0.5 | 7.5-10
10 | O=c1c(F)cccc(C2CCOCC2)c1O [drawing 211] | 0.01-0.5 | 5-7.5
11 | O=c1ccccc(OC2CCC2)c1O [drawing 233] | 0.01-0.5 | 7.5-10
12 | O=c1ccccc(OC2CC3(CC3)C2)c1O [drawing 259] | 1-5 | 10-25
13 | O=c1ccccc(OCC2CC2)c1O [drawing 260] | 1-5 | 10-25

Second part, led by results:

Row | Caco2 shDMT1 transport FC @ 3 μM, 4 h [2] | SMILES | Liposome Fe transport kefflux at 10 μM [1]
14 | 0.01-0.5 | CC(C)c1ccc(F)c(=O)c(O)c1F | 7.5-10
15 | 0.01-0.5 | Cc1cccc(Cl)c(=O)c1O | 5-7.5
16 | 0.01-0.5 | CCc1ccc(O)c(=O)c(F)c1 | 0.1-5
17 | 1-5 | CCc1cc(F)ccc(=O)c1O | 7.5-10
18 | 0.01-0.5 | CCc1cccc(Cl)c(=O)c1O | 7.5-10
19 | 0.02-0.03 | Cc1c(O)c(=O)ccn1C [deferiprone, reference compound] | 0
20 | 0.01-0.5 | CC(C)c1ccc(F)c(=O)c(O)c1 [drawing 176] | 10-25
21 | 0.01-0.5 | CC(C)c1cccc(=O)c(O)c1F [drawing 177] | 10-25
22 | 0.01-0.5 | CC(C)c1cccc(F)c(=O)c1O [drawing 179] | 10-25
23 | 0.01-0.5 | CCc1cccc(C)c(=O)c1O [drawing 202] | 5-7.5
24 | 1-5 | Cc1cc(C(C)C)ccc(O)c1=O [drawing 203] | 10-25
25 | 0.5-1 | Cc1cccc(C(C)C)c(O)c1=O [drawing 205] | 5-7.5
26 | 0.01-0.5 | Cc1cccc(F)c(=O)c1O [drawing 207] | 10-25

From patent US20230406803A1, “TROPOLONE DERIVATIVES AND TAUTOMERS THEREOF FOR IRON REGULATION IN ANIMALS” (Kinesid Therapeutics, Inc, priority 2020, published 2023)
